Test systems include 786-0 renal; CAKI-1 renal; HCT-116 colon; K-562 leukemia; LOX IMVI melanoma; OVCAR-3 ovarian; UO-31 renal.
Holding throughout (assay): inhibition of tumour cell growth, NCI panel, 48 h

The structures appear in SMILES notation. Values joined by “and” are separate entries in the source; they are usually repeats but may differ in a detail not shown here. Equal entries are not always repeated.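 48-hour exposure; five concentrations; linearly interpolated endpoints. GI50 marks 50% less growth. TGI denotes the concentration required for complete inhibition of growth.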

Turning to `Clc1ccc2[nH]cc(-c3nc(-c4c[nH]c5ncccc45)cs3)c2c1`, the GI50 is 2.34 µM in the test with 786-0 renal; 1.73 µM with CAKI-1 renal; 3.23 µM with HCT-116 colon; 2.42 µM with K-562 leukemia; 2.71 µM with LOX IMVI melanoma; 6.69 µM in the test with OVCAR-3 ovarian. Moreover, the GI50 in the test with UO-31 renal is 1.36 µM. Further, the TGI in the test on 786-0 renal was 5.89 µM; in the test on CAKI-1 renal it was 11.2 µM; in the test on HCT-116 colon, 13.7 µM; in the test with K-562 leukemia, > 100 µM; with LOX IMVI melanoma, 12.1 µM; in the test with OVCAR-3 ovarian it was 34.1 µM. Besides, the TGI with UO-31 renal was found to be 28.2 µM.

Turning to `CCOc1cc2c(NCCCN(CCO)CCO)ncnc2c(OCC)c1OCC`, the TGI in the test with 786-0 renal, in the test with CAKI-1 renal, in the test on HCT-116 colon, with K-562 leukemia, with LOX IMVI melanoma and in the test with OVCAR-3 ovarian was > 100 µM each time. Besides, the TGI in the test on UO-31 renal is > 100 µM.

Regarding `COC(=O)c1c2c(c(C)[n+]([O-])c1C)C(=O)C=C(NCc1ccc(F)c(F)c1)C2=O`, the GI50 is 1.35 µM in the test on 786-0 renal; 0.313 µM with CAKI-1 renal; 0.256 µM in the test on HCT-116 colon; 0.0745 µM in the test with K-562 leukemia; 0.0825 µM with LOX IMVI melanoma; 0.256 µM in the test with OVCAR-3 ovarian. The GI50 with UO-31 renal was 1.11 µM. The TGI with 786-0 renal amounted to 3.58 µM; in the test with CAKI-1 renal, 2.13 µM; with HCT-116 colon it was 0.902 µM; in the test on LOX IMVI melanoma, 1.39 µM; in the test on OVCAR-3 ovarian, 0.766 µM; in the test with UO-31 renal, 2.35 µM.

Consider `CN(C)CCCN1c2nc3ccccc3cc2Sc2cc3ccccc3nc21`, for which the GI50 was 1.24 µM with 786-0 renal; 1.46 µM with CAKI-1 renal; 1.1 µM in the test with HCT-116 colon; 0.639 µM with K-562 leukemia; 1.55 µM in the test with LOX IMVI melanoma; 1.53 µM in the test on OVCAR-3 ovarian. The GI50 in the test with UO-31 renal was 1.27 µM. Also, the TGI with 786-0 renal was 2.5 µM; in the test with CAKI-1 renal, 3.01 µM; in the test with HCT-116 colon it was 2.31 µM; in the test on K-562 leukemia it was > 100 µM; with LOX IMVI melanoma, 3.16 µM; in the test with OVCAR-3 ovarian it was 2.92 µM. In addition, the TGI in the test with UO-31 renal turned out to be 2.71 µM.

With `Cn1ncc2c(N)nc(N3CCCCC3)nc21`, the GI50 in the test on 786-0 renal was 69.3 µM; in the test on CAKI-1 renal, 29 µM; in the test with HCT-116 colon, 45.3 µM; in the test on K-562 leukemia, 62 µM; in the test with LOX IMVI melanoma, 22.7 µM; in the test with OVCAR-3 ovarian, 19.9 µM. The GI50 with UO-31 renal is 43 µM. Further, the TGI was > 100 µM in the test on 786-0 renal; > 100 µM with CAKI-1 renal; > 100 µM in the test with HCT-116 colon; > 100 µM in the test on K-562 leukemia; 51.4 µM in the test with LOX IMVI melanoma; 71.7 µM in the test on OVCAR-3 ovarian. Moreover, the TGI in the test on UO-31 renal is > 100 µM.

With `N#Cc1c(-c2ccccc2)cc(-c2ccc(Nc3nc(Nc4ccc(Cl)cc4)nc(Nc4ccc(Cl)cc4)n3)cc2)nc1N`, the GI50 with 786-0 renal was 1.91 µM; in the test on CAKI-1 renal, 11.8 µM; with HCT-116 colon, 1.48 µM; with K-562 leukemia, 2.15 µM; in the test on LOX IMVI melanoma, 1.85 µM; in the test on OVCAR-3 ovarian, 1.7 µM. In addition, the GI50 in the test with UO-31 renal is 1.1 µM. The TGI worked out at 3.46 µM in the test on 786-0 renal; 30.4 µM with CAKI-1 renal; 3 µM with HCT-116 colon; 7.59 µM with K-562 leukemia; 4.33 µM in the test with LOX IMVI melanoma; 3.68 µM in the test on OVCAR-3 ovarian. In the test with UO-31 renal, this molecule had a TGI of 2.33 µM.

For `NNc1cccc(/C=C/c2ccccc2)cc1=O`, the GI50 in the test on 786-0 renal was 19.9 µM; with CAKI-1 renal it was 2.6 µM; in the test with HCT-116 colon, 7.3 µM; with K-562 leukemia it was 3.13 µM; with LOX IMVI melanoma, 5.07 µM; in the test with OVCAR-3 ovarian, 7.35 µM. The GI50 in the test with UO-31 renal was 1.86 µM. The TGI with 786-0 renal is > 100 µM; in the test with CAKI-1 renal, 8.17 µM; with HCT-116 colon, > 100 µM; in the test on K-562 leukemia, > 100 µM; in the test on LOX IMVI melanoma, > 100 µM; with OVCAR-3 ovarian, 62.6 µM. In the test with UO-31 renal, the TGI came out at 9.24 µM.

As to `N=C(N=C(N)N)N1CCN(c2ccncc2)CC1`, the GI50 with 786-0 renal, in the test on CAKI-1 renal, in the test on HCT-116 colon, with K-562 leukemia, in the test on LOX IMVI melanoma and in the test on OVCAR-3 ovarian was > 1000 µM in each case. Further, in the test on UO-31 renal, the GI50 is > 1000 µM. For the same molecule, the TGI with 786-0 renal, with CAKI-1 renal, in the test on HCT-116 colon, in the test on K-562 leukemia, in the test on LOX IMVI melanoma and in the test on OVCAR-3 ovarian was > 1000 µM throughout. In addition, the TGI in the test on UO-31 renal was > 1000 µM.

As to `CCOC(=O)C(=Cc1ccccc1[N+](=O)[O-])C(=O)OCC`, the GI50 in the test on 786-0 renal was 3.85 µM; in the test with CAKI-1 renal it was 3.61 µM; in the test with HCT-116 colon, 2.53 µM; with K-562 leukemia, 3.64 µM; with LOX IMVI melanoma, 1.58 µM; in the test on OVCAR-3 ovarian it was 2.65 µM. Moreover, the GI50 with UO-31 renal was 4.52 µM. Also, the TGI is 11.8 µM in the test with 786-0 renal; 14.3 µM in the test on CAKI-1 renal; 7.56 µM in the test with HCT-116 colon; > 100 µM in the test on K-562 leukemia; 3.51 µM in the test with LOX IMVI melanoma; 6.48 µM in the test with OVCAR-3 ovarian. In addition, the TGI with UO-31 renal is 15.9 µM.

For `COc1ccc2c(Nc3ccc(NS(C)(=O)=O)cc3)c3ccccc3nc2c1`, the GI50 with 786-0 renal was 0.544 µM; in the test on CAKI-1 renal it was 0.45 µM; in the test on HCT-116 colon, 0.262 µM; with K-562 leukemia, 0.674 µM; in the test on LOX IMVI melanoma it was 0.285 µM; with OVCAR-3 ovarian it was 0.99 µM. Also, the GI50 in the test on UO-31 renal was 0.809 µM. Besides, the TGI with 786-0 renal is 4.24 µM; with CAKI-1 renal it was 5.64 µM; in the test with HCT-116 colon, 3.96 µM; in the test with K-562 leukemia it was > 100 µM; with LOX IMVI melanoma, 2.34 µM; in the test with OVCAR-3 ovarian, 3.09 µM. Moreover, in the test with UO-31 renal, the TGI was found to be 8.87 µM.

Regarding `Cc1cc(C)c(C[N+](C)(C)C)c(C)c1C`, the GI50 is 0.323 µM in the test on 786-0 renal; 0.281 µM in the test on CAKI-1 renal; 0.32 µM in the test with HCT-116 colon; 0.416 µM in the test on K-562 leukemia; 0.306 µM in the test with LOX IMVI melanoma; 0.638 µM in the test with OVCAR-3 ovarian. Moreover, the GI50 in the test with UO-31 renal is 0.333 µM. Moreover, the TGI with 786-0 renal is 13.2 µM; with CAKI-1 renal, > 26 µM; in the test with HCT-116 colon, 24.8 µM; with K-562 leukemia it was > 100 µM; in the test on LOX IMVI melanoma, 9.13 µM; with OVCAR-3 ovarian, 15.3 µM. Also, the TGI with UO-31 renal was 42.8 µM.

Consider `OCC1OC(n2ccc3c(NO)ncnc32)C(O)C1O` (stereo not drawn), for which the GI50 was 0.239 µM in the test on 786-0 renal; 0.0472 µM in the test on CAKI-1 renal; 0.0296 µM in the test on HCT-116 colon; 0.201 µM with K-562 leukemia; 0.0665 µM with LOX IMVI melanoma; 0.249 µM in the test with OVCAR-3 ovarian. In addition, the GI50 with UO-31 renal is 0.0536 µM. In addition, the TGI with 786-0 renal amounted to 1.1 µM; with CAKI-1 renal, 0.403 µM; in the test on HCT-116 colon, 1.03 µM; in the test with K-562 leukemia, 4.53 µM; with LOX IMVI melanoma, 1.27 µM; in the test on OVCAR-3 ovarian, 0.884 µM. Besides, in the test on UO-31 renal, the TGI amounted to 0.502 µM.

Take `NC(=O)c1cc(Br)cc(C2CCCCC2)c1O`: the GI50 was 11.8 µM in the test with 786-0 renal; 6.15 µM in the test on CAKI-1 renal; 12.5 µM in the test with HCT-116 colon; 14.4 µM in the test on K-562 leukemia; 13.2 µM with LOX IMVI melanoma; 13.2 µM with OVCAR-3 ovarian. Also, the GI50 in the test with UO-31 renal is 2.51 µM. Moreover, the TGI was found to be 24.4 µM in the test with 786-0 renal; 20.3 µM in the test on CAKI-1 renal; 25 µM in the test on HCT-116 colon; 34.5 µM in the test on K-562 leukemia; 26 µM in the test with LOX IMVI melanoma; 25.9 µM with OVCAR-3 ovarian. This molecule also displayed a TGI in the test on UO-31 renal of 18.3 µM.

Take `COc1ccccc1NC(=O)n1nc(N)c2ccccc21`: the GI50 with 786-0 renal is > 84 µM; in the test with CAKI-1 renal, > 100 µM; in the test on HCT-116 colon it was > 71.7 µM; with K-562 leukemia, 99.8 µM; in the test on LOX IMVI melanoma it was 82 µM; in the test with OVCAR-3 ovarian it was > 100 µM. The GI50 in the test on UO-31 renal is > 63.3 µM. Besides, the TGI with 786-0 renal, with CAKI-1 renal, in the test on HCT-116 colon, in the test on K-562 leukemia, with LOX IMVI melanoma and in the test on OVCAR-3 ovarian was > 100 µM in each case. Besides, in the test with UO-31 renal, the TGI was > 100 µM.

In the case of `COc1cc2c3c(c1)c1cc(OC)c(OC)cc1c[n+]3CC2`, the GI50 in the test with 786-0 renal is 56.2 µM; in the test on CAKI-1 renal it was > 100 µM; with HCT-116 colon, 40.5 µM; in the test on K-562 leukemia, 40.5 µM; in the test on LOX IMVI melanoma, 35.5 µM; in the test on OVCAR-3 ovarian, 17.7 µM. Further, the TGI was 50 µM and > 100 µM with 786-0 renal; 50 µM and > 100 µM with CAKI-1 renal; 50 µM and > 100 µM with HCT-116 colon; 50 µM and > 100 µM in the test on K-562 leukemia; 50 µM and > 100 µM in the test on LOX IMVI melanoma; 50 µM and > 100 µM in the test with OVCAR-3 ovarian. Further, the TGI in the test with UO-31 renal is > 100 µM.

In the case of `OCCSCc1ccccc1`, the TGI with 786-0 renal, in the test with CAKI-1 renal, in the test on HCT-116 colon, with K-562 leukemia, in the test with LOX IMVI melanoma and in the test with OVCAR-3 ovarian was > 100 µM throughout. In addition, the TGI in the test with UO-31 renal is > 100 µM.
